Calls of active or inactive are those of the source. The rule behind the calls is not given here.

What is called IC50 is the concentration that gives 50% inhibition. A lower IC50 goes with greater potency in that assay.

Assay [1] deals with T1, Ornithine decarboxylase (Rattus norvegicus) (UniProt P09057).
T1 sequence (whole entry): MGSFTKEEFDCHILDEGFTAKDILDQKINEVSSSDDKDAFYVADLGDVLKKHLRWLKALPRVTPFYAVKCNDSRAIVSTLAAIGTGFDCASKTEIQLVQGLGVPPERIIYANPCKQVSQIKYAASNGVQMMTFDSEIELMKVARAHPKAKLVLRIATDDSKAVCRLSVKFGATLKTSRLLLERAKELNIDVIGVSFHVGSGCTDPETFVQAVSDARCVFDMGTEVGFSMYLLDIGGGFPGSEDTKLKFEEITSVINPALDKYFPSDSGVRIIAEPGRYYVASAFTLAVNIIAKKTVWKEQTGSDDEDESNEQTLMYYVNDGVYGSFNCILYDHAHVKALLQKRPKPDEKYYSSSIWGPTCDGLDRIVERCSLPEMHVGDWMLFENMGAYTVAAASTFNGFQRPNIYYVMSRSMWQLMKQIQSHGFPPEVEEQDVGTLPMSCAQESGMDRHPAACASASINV
The assay is described as follows: Evaluated for inhibition of rat liver ornithine decarboxylase (ODC) at concentrations of 50 uM; No inhibition.

The test system of the next assay is T-24. Description: Antiproliferative activity against human T24 bladder carcinoma cells. It is filed as functional, cell-based.
Assay [2] addresses T2, S-adenosylmethionine decarboxylase proenzyme (Rattus norvegicus, UniProt P17708).
T2 sequence (P17708 whole entry): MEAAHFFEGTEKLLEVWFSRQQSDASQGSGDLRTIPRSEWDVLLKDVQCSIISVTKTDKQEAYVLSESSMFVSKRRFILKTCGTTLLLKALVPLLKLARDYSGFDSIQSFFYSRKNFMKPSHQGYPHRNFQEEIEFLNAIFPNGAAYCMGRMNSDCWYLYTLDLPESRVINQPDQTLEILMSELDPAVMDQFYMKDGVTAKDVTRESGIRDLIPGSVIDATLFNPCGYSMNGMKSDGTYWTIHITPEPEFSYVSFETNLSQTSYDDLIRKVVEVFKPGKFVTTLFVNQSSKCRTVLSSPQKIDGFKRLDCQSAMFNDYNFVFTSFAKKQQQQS
Description: Inhibitory concentration of compound against S-Adenosyl-methionine decarboxylase (SAMDC) from rat liver.

The target of assay [3] is T3, Diamine oxidase [copper-containing] (Rattus norvegicus, UniProt P36633).
T3 sequence (P36633 whole entry): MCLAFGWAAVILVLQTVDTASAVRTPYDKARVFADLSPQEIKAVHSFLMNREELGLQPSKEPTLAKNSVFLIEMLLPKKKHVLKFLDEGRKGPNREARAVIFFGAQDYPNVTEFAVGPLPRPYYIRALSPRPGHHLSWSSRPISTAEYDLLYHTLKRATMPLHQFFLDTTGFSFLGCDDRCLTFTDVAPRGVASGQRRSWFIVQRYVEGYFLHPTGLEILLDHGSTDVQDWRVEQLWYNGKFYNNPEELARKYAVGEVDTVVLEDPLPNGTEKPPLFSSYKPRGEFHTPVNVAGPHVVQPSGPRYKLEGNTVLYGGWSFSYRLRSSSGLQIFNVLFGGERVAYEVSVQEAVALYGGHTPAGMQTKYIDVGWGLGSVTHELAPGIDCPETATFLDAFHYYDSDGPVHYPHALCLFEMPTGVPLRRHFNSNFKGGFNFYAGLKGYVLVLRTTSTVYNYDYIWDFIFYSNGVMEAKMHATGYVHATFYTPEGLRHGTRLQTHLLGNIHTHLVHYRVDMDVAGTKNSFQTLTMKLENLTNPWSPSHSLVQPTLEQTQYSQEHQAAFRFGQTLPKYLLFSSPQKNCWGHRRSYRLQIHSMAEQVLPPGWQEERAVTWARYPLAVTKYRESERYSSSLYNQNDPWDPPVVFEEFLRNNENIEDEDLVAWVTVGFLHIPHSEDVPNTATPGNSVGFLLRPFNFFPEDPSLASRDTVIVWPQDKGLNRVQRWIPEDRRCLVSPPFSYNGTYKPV
The assay is described as follows: In vitro inhibition of Diamine oxidase (DAO) from rat small intestine. It is filed as tissue-based.

With `N=C(N)c1cccc(-c2cccc(C(=N)N)n2)n1`, the inhibition result in assay [1] was “inactive”. Moreover, the IC50 turned out to be 1.1 µM in the assay with T-24, 0.006 µM in assay [2] and 240 µM in assay [3].
For `CC/C(=N\N=C(N)N)c1cccc(C(=N)N)c1` the same measures were “inactive”, above 152 µM, 0.088 µM and 15 µM.
For `N=C(N)c1cc(-c2ccnc(C(=N)N)c2)ccn1` the same measures were “inactive”, above 151 µM, 0.18 µM and 12.9 µM.
For the molecule `N=C(NN)N/N=C/c1cccc(C(=N)N)c1`, in assay [1], the inhibition entry is “inactive”. For the same molecule, the results for the IC50 (in the assay with T-24; in assay [2]; in assay [3]) were 25 µM, 0.21 µM and 0.87 µM, respectively.
In the case of `N=C(N)c1cccc(/C=N/N=C(\N)N/N=C/c2cccc(C(=N)N)c2)c1`, the inhibition entry in assay [1] was “inactive”. Further, the IC50 in the assay with T-24 was above 101 µM; in assay [2] it was 0.061 µM; in assay [3] it was 0.83 µM.
For the molecule `N=C(NN)N/N=C/c1cccc(C(=N)N)n1`, the inhibition entry in assay [1] is “inactive”. Moreover, the IC50 with T-24 stood at 83.6 µM; in assay [2], 0.67 µM; in assay [3], 1.66 µM.
The like results for `C/C(=N\N=C(N)N)c1cccc(C(=N)N)c1` were, in that order, “inactive”, 118 µM, 0.066 µM and 2.7 µM.
For `N=C(N)N/N=C/c1cccc(C(=N)N)c1`, in assay [1], the inhibition result was “inactive”. Also, the IC50 in the assay with T-24 is 9.1 µM; in assay [2] it was 0.036 µM; in assay [3] it was 5.6 µM.
For the molecule `N=C(N)c1cccc(-c2ccnc(C(=N)N)n2)c1`, the inhibition entry in assay [1] is “inactive”. Also, the IC50 with T-24 is 68.2 µM; in assay [2], 0.006 µM; in assay [3], 10 µM.
For `N=C(N)N/N=C/c1cccc(C(=N)N)n1` the same measures were “inactive”, 10.1 µM, 0.09 µM and 0.87 µM.
On to `N=C(NO)N/N=C/c1cccc(C(=N)N)c1`, for which, in assay [1], the inhibition result is “inactive”. The values for the IC50 (in the assay with T-24; in assay [2]; in assay [3]) were 14.1 µM, 0.092 µM and 20 µM, respectively.
The like results for `N=C(NO)N/N=C/c1cccc(C(=N)N)n1` were, in that order, “inactive”, 32.9 µM, 0.24 µM and 7.5 µM.
As for `N=C(N)c1ccnc(-c2cc(C(=N)N)ccn2)c1`, in assay [1], the inhibition result is “inactive”. For the same molecule, the values for the IC50 (in the assay with T-24; in assay [2]) were above 143 µM and 3.1 µM, respectively.
As for `N=C(N)N/N=C/c1nccc(C(=N)N)n1`, the inhibition result in assay [1] is “inactive”. Besides, the IC50 in the assay on T-24 was above 126 µM; in assay [2] it was 11 µM; in assay [3] it was 3.4 µM.
For the molecule `CC(/C=N/NC(=N)N)=N\NC(=N)N` [MITOGUAZONE], the inhibition entry in assay [1] was “inactive”. In addition, the values for the concentration for half-maximal inhibition (IC50) (in the assay on T-24; in assay [3]) were 1.1 µM and 1.5 µM, respectively.
Take `CCCCNC(=N)N/N=C/c1cccc(C(=N)N)c1`: the inhibition entry in assay [1] was “inactive”. The IC50 in the assay with T-24 was above 26.8 µM; in assay [2], 0.16 µM; in assay [3], 2.8 µM.
For `N=C(N)N/N=C/c1cccc(C(=N)NO)n1` the same measures were “inactive”, above 119 µM, 25 µM and above 100 µM.
For the molecule `N=C(N)N/N=C/c1cccc(C(N)=O)c1`, in assay [1], the inhibition entry was “inactive”. The values for the IC50 (with T-24; in assay [2]; in assay [3]) were above 184 µM, 20 µM and above 100 µM, respectively.
The like results for `N=C(N)N/N=C/c1ccnc(C(=N)N)c1` were, in that order, “inactive”, above 180 µM, 0.33 µM and 3.2 µM.
For `N=C(NN)c1cccc(/C=N/N=C(N)N)n1` the same measures were “inactive”, 60.5 µM, 0.084 µM and 19 µM.
The like results for `N=C(N)N/N=C/c1ccnc(C(=N)N)n1` were, in that order, “inactive”, above 168 µM, 0.53 µM and 8.05 µM.
Turning to `CCCCNC(=N)c1cccc(/C=N/N=C(N)N)c1`, the inhibition result in assay [1] was “inactive”. For the same molecule, the IC50 was above 28.5 µM in the assay on T-24, above 50 µM in assay [2] and 5 µM in assay [3].
With `N=C(N)c1cccc(-c2cccc(C(=N)N)c2)c1`, the inhibition result in assay [1] is “inactive”. The IC50 is above 160 µM with T-24 and 0.6 µM in assay [2].
In the case of `N=C(N/N=C/c1cccc(C(=N)N)n1)N/N=C/c1cccc(C(=N)N)n1`, the inhibition result in assay [1] is “inactive”. Also, the IC50 in the assay on T-24 is 49.8 µM; in assay [2] it was 0.12 µM; in assay [3], 0.76 µM.

(Values after ChEMBL document CHEMBL1126674, “S-adenosylmethionine decarboxylase inhibitors: new aryl and heteroaryl analogues of methylglyoxal bis(guanylhydrazone)” (J Med Chem, 1993).)
